Source: patent US20090137661A1, “PLANT DERIVED COMPOUNDS AND COMPOUND FORMULAE CONTAINING THE SAME FOR THE TREATMENT OF CERVICAL CANCER” (priority 2007, published 2009)
Values after ≈ are worked out from the molar mass of the structure shown. Where two headings read alike, the source gives them in different places.

How the values were obtained:
[1] = tested on: HeLa cells; test: MTT assay within the anti-infection screening platform; type: cell-based, human; settings: 48 hours, concentrations inhibiting HPV 16 pseudovirus
Description: (§1) Carrageenan was used as positive control. […] The cell survival rate and IC50 of each sample were obtained in accordance with the method stated above.

[2] = tested on: HPV 16 pseudovirus; test: Screening for anti-infection compounds (GFP-expressing HPV 16 pseudovirus infecting HeLa cells); type: cell-based, human papilloma virus 16
Description: […] were co-transfected with codon-modified papillomavirus capsid genes, L1 and L2, plasmid: p16shell, and a GFP reporter plasmid, pClneo-GFP, to monitor the infectivity of the stock.
The GFP-expressing HPV 16 pseudoviruses were prepared and harvested in accordance with the protocol provided by the National Cancer Institute (USA). Said protocol is available on line at http://home.ccr.cancer.gov/lco/production.asp which is incorporated herein by reference in its entirety.
In the present application, the GFP-expressing HPV 16 pseudoviruses used have titers of about 4*10^8 infectious units per ml.
HeLa cells were seeded in 96-well plates at a density of 6×10^3 cells per well. 24 hours later, 2×HPV 16 pseudoviruses of various volumes were added. The signal to background ratio of each volume of the HPV 16 pseudoviruses was illustrated in FIG. 2.
When choosing screening platform, the infection rate should be around 20%. […] Under this dosage, the signal to background ratio is 2.0-2.5.
as §1

[3] = tested on: HeLa cells; test: Cytotoxicity assay (MTT assay) on HeLa cells; settings: for IC50: Homo sapiens, HeLa
Description: HeLa cell line was obtained from Dr. S. S. Shen (Biomedical Engineering Research Laboratories of Industrial Technology Research Institute of Taiwan). HeLa cells are adherent cells and were propagated and maintained in Dulbecco's modified Eagle's medium (DMEM) supplemented with 10% fetal bovine serum (FBS), […] sodium bicarbonate (NaHCO3), 1 mM sodium pyruvate, and 0.1 mM non-essential amino acid.
(§2) Cytotoxicity Assay (MTT Assay)
The cytotoxicity of the compounds set forth herein to HeLa cells and HUVEC cells were determined by the MTT assay. The HUVEC cells were used to understand the cytotoxicity of said compounds to normal human cells. Besides, doxorubicin HCl was used as a comparative example so as to investigate the efficacy of the compounds according to the embodiments of the present invention.
Briefly, the MTT assay comprises the following steps: • (A) Cells were seeded in 96-well plates 3 hours before treatment, wherein the density of HeLa cell is 1×10^4 cells per well and the density of HUVEC cell is 2×10^4 cells per well; • (B) Cells were then treated with various concentrations of tested samples and incubated for a predetermined period (24, 48, and 72 hours); • (C) After the predetermined periods expired, the tested samples were removed and 100 μl MTT reagent (1 mg/ml) was added to each well; • (D) The plates were incubated at 37° C. with 5% of CO2 for 5 hours; • (E) The MTT reagent was removed and 100 μl DMSO was added to each well; • (F) The optical density (O.D.) of each well was determined by ELISA reader at a wavelength of 560 nm.
Each experiment was repeated for 3 times and the result shown in the tables herein were the mean value of the 3 repetitions. The O.D. of the vehicle control and experimental groups were recorded. The cell survival rate of each sample was calculated as follows:
Cell survival rate(%)=O.D.control/O.D.experimental*100%
Then, the cell survival rate was plotted against the compound concentration and the IC50 value of each compound was calculated by the GraFit data analysis software (Erithacus Software Ltd.).

[4] = tested on: HUVEC cells; test: Cytotoxicity assay (MTT assay) on HUVEC cells; type: cell-based, human; settings: for IC50: Homo sapiens, HUVEC cells
Description: Human umbilical vein endothelial cells (HUVEC) were purchased from Food Industry Research and Development Institute in Hsin-Chu City, Taiwan. HUVEC cells were propagated and maintained in Medium 199 supplemented with 10% FBS, Heparin, and […].
as §2

Molecule: O=c1cc(-c2ccccc2)oc2cc(O)c(O)c(O)c12 [Compound C, baicalein]
- survival rates of HeLa cells in anti-infection screening [1]: higher than 80%
- IC50 ([2]; Pseudovirus, HeLa, 48 h, read-out: IC50 for inhibiting HPV 16 pseudoviruses): 8.2 mg/L (≈ 30.3 µM)

Molecule: Cc1cc2c(C(C)C)c(O)c(O)c(C=O)c2c(O)c1-c1c(C)cc2c(C(C)C)c(O)c(O)c(C=O)c2c1O [Compound F, gossypol-acetic acid]
- HeLa Cell Survival Rate ([3]; 0.1 μg/ml, 24 hrs): 101%
- HeLa Cell Survival Rate ([3]; 0.1 μg/ml, 48 hrs): 103%
- HeLa Cell Survival Rate ([3]; 0.1 μg/ml, 72 hrs): 98%
- HeLa Cell Survival Rate ([3]; 1 μg/ml, 24 hrs): 97%
- HeLa Cell Survival Rate ([3]; 1 μg/ml, 48 hrs): 105%
- HeLa Cell Survival Rate ([3]; 1 μg/ml, 72 hrs): 98%
- HeLa Cell Survival Rate ([3]; 10 μg/ml, 24 hrs): 80%
- HeLa Cell Survival Rate ([3]; 10 μg/ml, 48 hrs): 52%
- HeLa Cell Survival Rate ([3]; 10 μg/ml, 72 hrs): 40%
- HeLa Cell Survival Rate ([3]; 100 μg/ml, 24 hrs): 17%
- HeLa Cell Survival Rate ([3]; 100 μg/ml, 48 hrs): 13%
- HeLa Cell Survival Rate ([3]; 100 μg/ml, 72 hrs): 10%
- HUVEC/HeLa ratio of IC50 ([3]; 24 hours): 1.0
- HUVEC/HeLa ratio of IC50 ([3]; 48 hours): 2.8
- HUVEC/HeLa ratio of IC50 ([3]; 72 hours): 2.9
- IC50 ([3]; 24 h, read-out: IC50 at 24 hours, HeLa): 29 mg/L (≈ 55.9 µM)
- IC50 ([3]; 48 h, read-out: IC50 at 48 hours, HeLa): 12 mg/L (≈ 23.1 µM)
- IC50 ([3]; 72 h, read-out: IC50 at 72 hours, HeLa): 8 mg/L (≈ 15.4 µM)
- cytotoxicity to HeLa cells compared with Doxorubicin HCl ([3]; under the corresponding conditions): higher cytotoxicity
- HUVEC Cell Survival Rate ([4]; 0.1 μg/ml, 24 hrs): 93%
- HUVEC Cell Survival Rate ([4]; 0.1 μg/ml, 48 hrs): 104%
- HUVEC Cell Survival Rate ([4]; 0.1 μg/ml, 72 hrs): 103%
- HUVEC Cell Survival Rate ([4]; 1 μg/ml, 24 hrs): 88%
- HUVEC Cell Survival Rate ([4]; 1 μg/ml, 48 hrs): 104%
- HUVEC Cell Survival Rate ([4]; 1 μg/ml, 72 hrs): 98%
- HUVEC Cell Survival Rate ([4]; 10 μg/ml, 24 hrs): 80%
- HUVEC Cell Survival Rate ([4]; 10 μg/ml, 48 hrs): 85%
- HUVEC Cell Survival Rate ([4]; 10 μg/ml, 72 hrs): 71%
- HUVEC Cell Survival Rate ([4]; 100 μg/ml, 24 hrs): 20%
- HUVEC Cell Survival Rate ([4]; 100 μg/ml, 48 hrs): 17%
- HUVEC Cell Survival Rate ([4]; 100 μg/ml, 72 hrs): 17%
- IC50 ([4]; 24 hours, read-out: IC50 at 24 hours, HUVEC): 30 mg/L (≈ 57.9 µM)
- IC50 ([4]; 48 hours, read-out: IC50 at 48 hours, HUVEC): 33 mg/L (≈ 63.6 µM)
- IC50 ([4]; 72 hours, read-out: IC50 at 72 hours, HUVEC): 23 mg/L (≈ 44.4 µM)

Molecule: Carrageenan [reference compound]
- IC50 for inhibiting HPV 16 pseudoviruses ([2]; HeLa cells infected with 0.25 μl HPV 16 pseudovirus per well, 48 hours): about 0.07 μg/ml
